Results: PubChem BioAssay (NCI)
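Assay format: 96-well plates, 48-hour exposure. Definition used: TGI = concentration required for complete inhibition of growth.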

What was measured:
Experiment in all cases: NCI-60 cell line screen, 48 h
ACHN renal = system: ACHN renal
K-562 leukemia = system: K-562 leukemia
HT29 colon = system: HT29 colon
SF-268 CNS = system: SF-268 CNS
SF-539 CNS = system: SF-539 CNS
SK-MEL-2 melanoma = system: SK-MEL-2 melanoma
NCI-H226 lung = system: NCI-H226 lung
UACC-62 melanoma = system: UACC-62 melanoma
UACC-257 melanoma = system: UACC-257 melanoma
MDA-MB-231 breast = system: MDA-MB-231 breast

Compound | TGI (ACHN renal) [µM] | TGI (K-562 leukemia) [µM] | TGI (HT29 colon) [µM] | TGI (SF-268 CNS) [µM] | TGI (SF-539 CNS) [µM] | TGI (SK-MEL-2 melanoma) [µM] | TGI (NCI-H226 lung) [µM] | TGI (UACC-62 melanoma) [µM] | TGI (UACC-257 melanoma) [µM] | TGI (MDA-MB-231 breast) [µM]
CC(C)(C)c1ccnc(N=C2N=C(Nc3cc(C(C)(C)C)ccn3)c3ccccc32)c1 | > 100 | > 100 | 75 | 37.9 | > 100 | > 100 | > 100 | > 100 | 76.1 | 
CC(C)(C)N=NC(C)(C)N=C=O | > 100 | > 100 | > 100 | > 100 | > 100 | > 100 | > 100 | > 100 | > 100 | 
CSc1ccc(/C=C2\N=C(c3ccccc3)N(c3nc4cc(Cl)c(F)cc4s3)C2=O)cc1 | > 100 | > 100 | > 100 | > 100 | 82.6 | 50.4 |  | > 100 | > 100 | > 100
C=C1C[C@@H]2O[C@H]3[C@H]4[C@@H](C[C@@H](C)[C@@H](OC(C)=O)[C@H]42)[C@@H](C)CO[C@@]3(C)[C@H](OC(=O)CCCCCCC)CC1=O | 29.5 |  | > 100 | 36.9 | 38 | 35 | 42.9 | 32.1 | 30.7 | 36.7
COc1cc(/C=N/N=C(\N)NO)c([N+](=O)[O-])cc1OC | 86.5 | > 100 | > 100 | 99.2 | > 100 | > 100 | 54.4 | 59 | > 100 | 
CC(=O)Oc1ccc2c(-c3ccccc3)c(Oc3ccc(Cl)cc3)c(=O)oc2c1 | 30.5 | 31.6 | 39.8 | 22.6 | 31.1 |  | 32.5 |  | 37.8 | 32.8
CC1(C)N=C(N)N=C(N)N1c1cccc(Cl)c1 | > 100 | > 100 | > 100 | > 100 | > 100 | > 100 |  | > 100 | > 100 | > 100
CCOC(=O)c1c(SCc2cc(=O)[nH]c(=O)[nH]2)n(-c2ccccc2)c(=S)n(-c2ccccc2)c1=O | > 100 | > 100 | > 100 | > 100 | > 100 | > 100 |  | > 100 | > 100 | > 100
O=C1Nc2cc(F)ccc2C1=O | > 100 | > 100 | > 100 | > 100 | > 100 | > 100 | > 100 | > 100 | > 100 | 
CCCCN(CCCC)CC(C(C)=O)C(c1ccccc1)c1c(O)c2ccccc2oc1=O (configuration not stated) | > 100 | > 100 | > 100 | > 100 | > 100 | > 100 | > 100 | > 100 | > 100 | 
CNC(=O)CN(CC(=O)O)C(=O)NC | > 100 | > 100 | > 100 | > 100 | > 100 | > 100 |  | > 100 | > 100 | 
